Measurements taken from patent publication US7534766B2, “Glucuronide metabolites and epimers thereof of tigecycline” (Wyeth, priority 2004, dated 2009).

Key:
[1] = LC/MS characterization of tigecycline related compounds in human serum, urine and feces; format: in vivo; conditions: human, after single 50 mg IV [14C]tigecycline dose
Excerpt: Three HPLC conditions were used during LC/MS analysis in this study. LC/MS Condition 1 was used for the majority of sample analyses for metabolite characterization and to isolate metabolite M3a from urine. LC/MS Condition 2 was used on selected samples to increase the retention time of glucuronide metabolites and for a co-chromatography experiment to confirm the identity of metabolites M8 and M9. LC/MS Condition 3 was used to analyze the polar metabolite M3a isolated from human urine.
The UV detector was set to monitor 340-360 nm. […] The flow rate was 0.2 mL/min. […] The linear mobile phase gradient is shown below.
Separations were accomplished on a Phenomenex Luna C18(2) column (250×2.0 mm, 5 μm) with a Uniguard C18 guard column (10×2 mm) (ThermoHypersil-Keystone). The flow rate was 0.2 mL/min. […] Mobile phase A was 0.02% trifluoroacetic acid in water (v/v) and mobile phase B was 0.02% trifluoroacetic acid in acetonitrile (v/v). The linear mobile phase gradient is shown below.
A Micromass Quattro Ultima triple quadrupole mass spectrometer (Waters Corp.) was operated in the positive ionization mode. LC/MS analysis with electrospray ionization (ESI) was conducted using a Z-spray interface. ESI-MS analysis of individual fractions from selected samples was conducted by direct infusion into a nanospray interface. Settings for the mass spectrometer are listed below.
Urine and feces samples were analyzed for tigecycline metabolites by LC/MS/MS analysis for precursors of product ions characteristic of tigecycline. Additionally, potential metabolites of tigecycline were searched for in the LC/MS data based upon results from previous studies in animals and humans.
Serum extracts were analyzed for tigecycline and selected metabolites by LC/MS/MS in the selected reaction monitoring (SRM) mode (LC/SRM) to reduce interference from endogenous components. […] The following tigecycline related components were monitored.

[2] = Stability of [14C]tigecycline during extraction from control human fecal homogenates; format: in vitro ADME
Excerpt: Similar results were observed following the extraction of [^14C]tigecycline from control fecal homogenates. In these samples, [^14C]tigecycline accounted for 94% of the radioactivity prior to extraction and 68% following the extraction. There was a corresponding increase in the epimer of tigecycline, which represented 4% of the radioactivity prior to extraction and 23% following the extraction. […] Other minor products represented less than 1% of the radioactivity prior to the extraction and 4% following the extraction.
The stability of [^14C]tigecycline during the extraction process was determined in control human fecal homogenates spiked with [^14C]tigecycline at 5 μg/g of homogenate. […] Samples were extracted and analyzed by HPLC with radioactivity flow detection.

[3] = Mass balance: percent of [14C]tigecycline dose excreted in human urine and feces
Experimental: The concentration of tigecycline-related components in serum, urine and feces was calculated based on the total radioactivity concentrations reported elsewhere. These concentrations were converted to ng-tigecycline equivalents using the specific activity of the dose (1.00 μCi/mg). Using this value, the concentrations of the specific components were then estimated based on the distribution of radioactivity in the radiochromatograms.
An open-label, inpatient, multiple-dose tigecycline, single-dose [^14C]tigecycline metabolic disposition and mass balance study was performed in six healthy male volunteers. The clinical protocol called for twelve subjects. Of these twelve, six received the radioactive dose (subjects 1, 4, 5, 6, 7, and 8 with subject 8 later dropping out of the study.) Eligible subjects were selected based on inclusion/exclusion criteria, medical history, physical examination and additional procedures outlined in the study protocol. Each subject received a 100 mg loading dose on the morning of Day 1, followed by a 50 mg maintenance dose every 12 hours for an additional 5 doses. On the morning of study Day 4, six subjects received a single 50 mg dose of [^14C]tigecycline (50 μCi). Each tigecycline dose was administered via a 30-minute intravenous infusion.
Serum samples were collected for metabolite profiling prior to tigecycline dosing and 1, 4, 8, 24 and 48 hours following the [^14C]-labeled dose. For metabolite profiling, urine samples were collected at 0-4, 4-8, 8-24 and 24-48 hours and fecal samples were collected up to 48 hours following the [^14C]-labeled dose. Serum and urine samples, and fecal homogenates were shipped on dry ice to the Biotransformation Division of Drug Safety and Metabolism, Wyeth Research, Collegeville, Pa. The details of the sample collection and sample storage are described in the mass balance portion of the study. The 24-48 hour urine and fecal samples for subject #6 were incomplete since the subject withdrew from the study. While samples from this subject were used for metabolite profiling, the samples were not included in the mass balance calculations.

[4] = Estimated concentrations in rabbit serum by LC/MS (SRM) after intravenous tigecycline; format: in vivo, New Zealand White rabbit
Experimental: Three female New Zealand White rabbits, weighing between 3.9 and 4.3 kg at the time of dosing, were used. Animals were given food and water ad libitum. Animals were individually housed in standard cages. Rabbits were dosed at Wyeth Research, Chazy, N.Y. and samples shipped frozen to the Wyeth Research Biotransformation Department, Collegeville, Pa.
Standard curves for tigecycline, M3 and M9 were prepared in rabbit serum. Standard curves were prepared by adding the internal standard and synthetic tigecycline and metabolite standards to control plasma. Standard curve samples were prepared with tigecycline concentrations of 0, 10, 20, 50, 100, 200, 500 and 1000 ng/mL, with the linear range being […]. For 9-aminominocycline (M3), the concentrations were 0, 1, 5, 10, 20, 50, 100 and 200 ng/mL, with the linear range being 10 to 200 ng/mL. For N-acetyl-9-aminominocycline (M9), the concentrations were 1.6, 3.2, 6.4, 16, 32, 64 and 96 ng/mL, with the linear range being from 3.2 to 96 ng/mL. These samples were processed and analyzed as described above.
The column temperature was 25° C. The flow rate was 0.2 mL/min. […] Gradient 1 was used for metabolite identification (qualitative analysis).
Micromass MassLynx (version 4.0, Waters Corp.) was used for analysis of LC/MS data. The concentrations of tigecycline, 9-aminominocycline (M3) and N-acetyl-9-aminominocycline (M9) in serum were calculated based on the analyte to internal standard peak area ratios in the samples as compared to the standard curves generated in rabbit serum.

[5] = Safety and tolerability of intravenous tigecycline in healthy male volunteers; format: in vivo, human; conditions: IV 100-mg dose, five 50-mg doses, single 50-mg [14C]tigecycline dose
Excerpt: The clinical protocol called for twelve subjects.

In the case of CC(C)(C)NCC(=O)O [Metabolite M3a, t-butylaminoacetic acid], the “Matrix in which the compound was observed” value [1] is reported as “S, U, F”, the “increase in percent of the radioactivity, control fecal homogenates” value ([2]; during the extraction) is reported as 4% and the “percent of the radioactivity, control fecal homogenates” value ([2]; following the extraction) is reported as 5%. The “percent of the radioactivity, control fecal homogenates” value ([2]; prior to extraction, 5 μg/g of homogenate) was 1%.

With CN(C)c1cc(NC(=O)CNC(C)(C)C)c(O)c2c1C[C@H]1C[C@H]3[C@H](N(C)C)C(O)=C(C(N)=O)C(=O)[C@@]3(O)C(O)=C1C2=O [Tigecycline] the “Percentage of Dose (mean ± standard deviation) excreted” value ([3]; Feces (0–48 hours), n = 5) was 9.9 ± 7.9%, the “Percentage of Dose (mean ± standard deviation) excreted” value ([3]; Total Urine (0-48 hours), n = 5, ND = not detected) was 14.8 ± 2.9% and the “Percentage of Dose (mean ± standard deviation) excreted” value ([3]; Total urine + feces (0–48 hours), n = 5) was 24.7 ± 8.7%. For the same molecule, the “Percentage of Dose (mean ± standard deviation) excreted” value ([3]; Urine 0–4 hours, ND = not detected) was 7.1 ± 0.9%, the “Percentage of Dose (mean ± standard deviation) excreted” value ([3]; Urine 4–8 hours, ND = not detected) was 2.4 ± 1.1% and the “Percentage of Dose (mean ± standard deviation) excreted” value ([3]; Urine 8–24 hours, ND = not detected) was 3.3 ± 1.1%. The “Percentage of Dose (mean ± standard deviation) excreted” value ([3]; Urine 24–48 hours, n = 5, ND = not detected) was 1.7 ± 0.7%, the “Matrix in which the compound was observed” value [1] was “S, U, F” and the concentration at 0.5 h ([4]; 0.5 hr after 4 mg/kg IV tigecycline, pooled serum, female New Zealand White rabbits) was 2020 ng/mL. It also gave a concentration at 2 h ([4]; female, New Zealand White, 2 hr after 4 mg/kg IV tigecycline, pooled serum) of 1040 ng/mL, a concentration at 6 h ([4]; female, New Zealand White, 6 hr after 4 mg/kg IV tigecycline, pooled serum) of 287 ng/mL and a concentration at 1 h ([4]; female, New Zealand White, serum, at 1 hour, 4 mg/kg IV tigecycline) of 2020 ng/mL. The “adverse event frequency: dyspepsia” value [5] was 17%, the “adverse event frequency: injection site inflammation” value [5] was 17% and the “adverse event frequency: nausea” value [5] was 75%. The “adverse event frequency: vomiting” value [5] was 50% and the safety and tolerability [5] was “generally safe and well tolerated”.
